From article PMC10885153, “Membrane Permeability in a Large Macrocyclic Peptide Driven by a Saddle-Shaped Conformation” (Journal of the American Chemical Society, 2024)
Positions of bridges follow the written chain, without caps; N, C: chain ends. Non-standard residues stand in square brackets, D forms with d. Residues, ends and D or L forms follow the SMILES beside them. Cha = N[C@@H](CC1CCCCC1)C(=O)O; NMeC = CN[C@@H](CS)C(=O)O; NMeA = CN[C@@H](C)C(=O)O; dAbu = CC[C@@H](N)C(=O)O; dNMeA = CN[C@H](C)C(=O)O; Nva = CCC[C@H](N)C(=O)O; Abu = CC[C@H](N)C(=O)O; Nleu = CC(C)CNCC(=O)O; NPrGly = CCCNCC(=O)O; NEtG = CCNCC(=O)O

Test: not given
Details: not given

Row | Structure (SMILES) | PAMPA Pe_avg [×10⁻⁶ cm/s]
1 | CCOC(=O)[C@@H]1CSCC(=O)N[C@H](CC)C(=O)N(C)[C@@H](C)C(=O)N[C@H](CC(C)C)C(=O)N2CCC[C@@H]2C(=O)N(CC)CC(=O)N[C@@H](CC(C)C)C(=O)N(C)[C@@H](C)C(=O)N[C@@H](CC(C)C)C(=O)N1C [JF206_ADD_DDLL_Ethyl] ({CH2CO}-[dAbu][NMeA][dL][dP][NEtG]L[NMeA]L[NMeC]-OEt; thioether N-9) | 0
2 | CCOC(=O)[C@@H]1CSCC(=O)N[C@@H](CC)C(=O)N(C)[C@@H](C)C(=O)N[C@H](CC(C)C)C(=O)N2CCC[C@@H]2C(=O)N(CC)CC(=O)N[C@@H](CC(C)C)C(=O)N(C)[C@H](C)C(=O)N[C@@H](CC(C)C)C(=O)N1C [JF206_ADL_LDLD_Ethyl] ({CH2CO}-[Abu][NMeA][dL][dP][NEtG]L[dNMeA]L[NMeC]-OEt; thioether N-9) | 0

Same assay, conditions: PAMPA, 10 µM, pH 7.4

Row | Structure (SMILES) | %R_avg [%] | Pe_avg [×10⁻⁶ cm/s]
3 | CCC[C@@H]1NC(=O)CN(CC)C(=O)[C@H](CC(C)C)NC(=O)CSC[C@@H](C(=O)OCC)N(C)C(=O)[C@H](CC(C)C)NC(=O)[C@H](C)N(C)C(=O)[C@H](CC)NC(=O)[C@H](C)N(C)C(=O)[C@H]2CCCN2C1=O [LB01, O=C(N(C)[C@H](C(OCC)=O)CSCC(N[C@H](C1=O)CC(C)C)=O)[C@H](CC(C)C)NC([C@H](C)N(C)C([C@H](CC)NC([C@H](C)N(C)C([C@@H]2N(C([C@H](CCC)NC(CN1CC)=O)=O)CCC2)=O)=O)=O)=O] ({CH2CO}-L[NEtG][Nva][dP][NMeA][Abu][NMeA]L[NMeC]-OEt; thioether N-9) | 62.4 | –
4 | CCC[C@@H]1NC(=O)[C@H](C)N(C)C(=O)[C@H](CC(C)C)NC(=O)CSC[C@@H](C(=O)OCC)N(C)C(=O)[C@H](CC(C)C)NC(=O)[C@H](C)N(C)C(=O)[C@H](CC2CCCCC2)NC(=O)CN(CCC)C(=O)[C@H]2CCCN2C1=O [LA11, O=C(N(C)[C@H](C(OCC)=O)CSCC(N[C@H](C(N(C)[C@@H](C)C(N[C@@H](CCC)C(N1[C@H](CCC1)C(N(CCC)CC(N[C@H]2CC3CCCCC3)=O)=O)=O)=O)=O)CC(C)C)=O)[C@H](CC(C)C)NC([C@H](C)N(C)C2=O)=O] ({CH2CO}-L[NMeA][Nva][dP][NPrGly][Cha][NMeA]L[NMeC]-OEt; thioether N-9) | 6.5 | –
5 | CCCN1CC(=O)N[C@@H](CC2CCCCC2)C(=O)N(C)[C@@H](C)C(=O)N[C@@H](CC(C)C)C(=O)N(C)[C@H](C(=O)OCC)CSCC(=O)N[C@@H](CC(C)C)C(=O)N(C)[C@@H](C)C(=O)N[C@@H](CC(C)C)C(=O)N2CCC[C@@H]2C1=O [LA12, O=C(N(C)[C@H](C(OCC)=O)CSCC(N[C@H](C(N(C)[C@@H](C)C(N[C@@H](CC(C)C)C(N1[C@H](CCC1)C(N(CCC)CC(N[C@H]2CC3CCCCC3)=O)=O)=O)=O)=O)CC(C)C)=O)[C@H](CC(C)C)NC([C@H](C)N(C)C2=O)=O] ({CH2CO}-L[NMeA]L[dP][NPrGly][Cha][NMeA]L[NMeC]-OEt; thioether N-9) | 9.2 | 0

Test: in vitro
Details: PAMPA, pH 7.4, PAMPA Pe_avg

Row | Structure (SMILES) | Papp at 10 µM [×10⁻⁶ cm/s]
6 | CCOC(=O)[C@@H]1CSCC(=O)N[C@H](CC)C(=O)N(C)[C@@H](C)C(=O)N[C@@H](CC(C)C)C(=O)N2CCC[C@H]2C(=O)N(CC)CC(=O)N[C@@H](CC(C)C)C(=O)N(C)[C@H](C)C(=O)N[C@@H](CC(C)C)C(=O)N1C [JF206_ALD_DLLD_Ethyl] ({CH2CO}-[dAbu][NMeA]LP[NEtG]L[dNMeA]L[NMeC]-OEt; thioether N-9) | 0.016
7 | CCOC(=O)[C@@H]1CSCC(=O)N[C@H](CC)C(=O)N(C)[C@@H](C)C(=O)N[C@H](CC(C)C)C(=O)N2CCC[C@@H]2C(=O)N(CC(C)C)CC(=O)N[C@@H](CC(C)C)C(=O)N(C)[C@H](C)C(=O)N[C@@H](CC(C)C)C(=O)N1C [JF206_ADD_DDLD_Isobutyl] ({CH2CO}-[dAbu][NMeA][dL][dP][Nleu]L[dNMeA]L[NMeC]-OEt; thioether N-9) | 0.125
8 | CCOC(=O)[C@@H]1CSCC(=O)N[C@@H](CC)C(=O)N(C)[C@@H](C)C(=O)N[C@H](CC(C)C)C(=O)N2CCC[C@H]2C(=O)N(CC)CC(=O)N[C@H](CC(C)C)C(=O)N(C)[C@H](C)C(=O)N[C@@H](CC(C)C)C(=O)N1C [JF206_ALL_LDDD_Ethyl] ({CH2CO}-[Abu][NMeA][dL]P[NEtG][dL][dNMeA]L[NMeC]-OEt; thioether N-9) | 0.623
9 | CCOC(=O)[C@@H]1CSCC(=O)N[C@@H](CC)C(=O)N(C)[C@@H](C)C(=O)N[C@H](CC(C)C)C(=O)N2CCC[C@@H]2C(=O)N(CC)CC(=O)N[C@H](CC(C)C)C(=O)N(C)[C@@H](C)C(=O)N[C@@H](CC(C)C)C(=O)N1C [JF206_ADL_LDDL_Ethyl] ({CH2CO}-[Abu][NMeA][dL][dP][NEtG][dL][NMeA]L[NMeC]-OEt; thioether N-9) | 0.315
10 | CCOC(=O)[C@@H]1CSCC(=O)N[C@H](CC)C(=O)N(C)[C@@H](C)C(=O)N[C@@H](CC(C)C)C(=O)N2CCC[C@H]2C(=O)N(CC)CC(=O)N[C@H](CC(C)C)C(=O)N(C)[C@@H](C)C(=O)N[C@@H](CC(C)C)C(=O)N1C [JF206_ALD_DLDL_Ethyl] ({CH2CO}-[dAbu][NMeA]LP[NEtG][dL][NMeA]L[NMeC]-OEt; thioether N-9) | 0.027
11 | CCOC(=O)[C@@H]1CSCC(=O)N[C@H](CC)C(=O)N(C)[C@@H](C)C(=O)N[C@H](CC(C)C)C(=O)N2CCC[C@@H]2C(=O)N(CC)CC(=O)N[C@H](CC(C)C)C(=O)N(C)[C@@H](C)C(=O)N[C@@H](CC(C)C)C(=O)N1C [JF206_ADD_DDDL_Ethyl] ({CH2CO}-[dAbu][NMeA][dL][dP][NEtG][dL][NMeA]L[NMeC]-OEt; thioether N-9) | 0.162
12 | CCOC(=O)[C@@H]1CSCC(=O)N[C@@H](CC)C(=O)N(C)[C@@H](C)C(=O)N[C@H](CC(C)C)C(=O)N2CCC[C@H]2C(=O)N(CC)CC(=O)N[C@@H](CC(C)C)C(=O)N(C)[C@@H](C)C(=O)N[C@@H](CC(C)C)C(=O)N1C [JF206_ALL_LDLL_Ethyl] ({CH2CO}-[Abu][NMeA][dL]P[NEtG]L[NMeA]L[NMeC]-OEt; thioether N-9) | 0.015
13 | CCOC(=O)[C@@H]1CSCC(=O)N[C@H](CC)C(=O)N(C)[C@@H](C)C(=O)N[C@H](CC(C)C)C(=O)N2CCC[C@H]2C(=O)N(CC)CC(=O)N[C@H](CC(C)C)C(=O)N(C)[C@H](C)C(=O)N[C@@H](CC(C)C)C(=O)N1C [JF206_ALD_DDDD_Ethyl] ({CH2CO}-[dAbu][NMeA][dL]P[NEtG][dL][dNMeA]L[NMeC]-OEt; thioether N-9) | 0.194
14 | CCOC(=O)[C@@H]1CSCC(=O)N[C@@H](CC)C(=O)N(C)[C@@H](C)C(=O)N[C@@H](CC(C)C)C(=O)N2CCC[C@@H]2C(=O)N(CC)CC(=O)N[C@@H](CC(C)C)C(=O)N(C)[C@H](C)C(=O)N[C@@H](CC(C)C)C(=O)N1C [JF206_ADL_LLLD_Ethyl] ({CH2CO}-[Abu][NMeA]L[dP][NEtG]L[dNMeA]L[NMeC]-OEt; thioether N-9) | 0.326

Results, then the compound that gave them:

Row | Papp at 10 µM [×10⁻⁶ cm/s] | Structure (SMILES)
15 | 0.063 | CCOC(=O)[C@@H]1CSCC(=O)N[C@H](CC)C(=O)N(C)[C@@H](C)C(=O)N[C@H](CC(C)C)C(=O)N2CCC[C@H]2C(=O)N(CC(C)C)CC(=O)N[C@@H](CC(C)C)C(=O)N(C)[C@H](C)C(=O)N[C@@H](CC(C)C)C(=O)N1C [JF206_ALD_DDLD_Isobutyl] ({CH2CO}-[dAbu][NMeA][dL]P[Nleu]L[dNMeA]L[NMeC]-OEt; thioether N-9)
16 | 0.556 | CCOC(=O)[C@@H]1CSCC(=O)N[C@H](CC)C(=O)N(C)[C@@H](C)C(=O)N[C@H](CC(C)C)C(=O)N2CCC[C@H]2C(=O)N(CC(C)C)CC(=O)N[C@H](CC(C)C)C(=O)N(C)[C@@H](C)C(=O)N[C@@H](CC(C)C)C(=O)N1C [JF206_ALD_DDDL_Isobutyl] ({CH2CO}-[dAbu][NMeA][dL]P[Nleu][dL][NMeA]L[NMeC]-OEt; thioether N-9)
17 | 0.173 | CCOC(=O)[C@@H]1CSCC(=O)N[C@H](CC)C(=O)N(C)[C@@H](C)C(=O)N[C@@H](CC(C)C)C(=O)N2CCC[C@@H]2C(=O)N(CC(C)C)CC(=O)N[C@H](CC(C)C)C(=O)N(C)[C@@H](C)C(=O)N[C@@H](CC(C)C)C(=O)N1C [JF206_ADD_DLDL_Isobutyl] ({CH2CO}-[dAbu][NMeA]L[dP][Nleu][dL][NMeA]L[NMeC]-OEt; thioether N-9)
18 | 0.561 | CCOC(=O)[C@@H]1CSCC(=O)N[C@H](CC)C(=O)N(C)[C@@H](C)C(=O)N[C@@H](CC(C)C)C(=O)N2CCC[C@@H]2C(=O)N(CC)CC(=O)N[C@@H](CC(C)C)C(=O)N(C)[C@@H](C)C(=O)N[C@@H](CC(C)C)C(=O)N1C [JF206_ADD_DLLL_Ethyl] ({CH2CO}-[dAbu][NMeA]L[dP][NEtG]L[NMeA]L[NMeC]-OEt; thioether N-9)
19 | 0.005 | CCOC(=O)[C@@H]1CSCC(=O)N[C@H](CC)C(=O)N(C)[C@@H](C)C(=O)N[C@H](CC(C)C)C(=O)N2CCC[C@@H]2C(=O)N(CC)CC(=O)N[C@@H](CC(C)C)C(=O)N(C)[C@H](C)C(=O)N[C@@H](CC(C)C)C(=O)N1C [JF206_ADD_DDLD_Ethyl] ({CH2CO}-[dAbu][NMeA][dL][dP][NEtG]L[dNMeA]L[NMeC]-OEt; thioether N-9)
20 | 0.011 | CCOC(=O)[C@@H]1CSCC(=O)N[C@@H](CC)C(=O)N(C)[C@@H](C)C(=O)N[C@@H](CC(C)C)C(=O)N2CCC[C@@H]2C(=O)N(CC)CC(=O)N[C@H](CC(C)C)C(=O)N(C)[C@@H](C)C(=O)N[C@@H](CC(C)C)C(=O)N1C [JF206_ADL_LLDL_Ethyl] ({CH2CO}-[Abu][NMeA]L[dP][NEtG][dL][NMeA]L[NMeC]-OEt; thioether N-9)
21 | 0.00548 | CCOC(=O)[C@@H]1CSCC(=O)N[C@H](CC)C(=O)N(C)[C@@H](C)C(=O)N[C@H](CC(C)C)C(=O)N2CCC[C@H]2C(=O)N(CC)CC(=O)N[C@@H](CC(C)C)C(=O)N(C)[C@@H](C)C(=O)N[C@@H](CC(C)C)C(=O)N1C [JF206_ALD_DDLL_Ethyl] ({CH2CO}-[dAbu][NMeA][dL]P[NEtG]L[NMeA]L[NMeC]-OEt; thioether N-9)
22 | 0.177 | CCOC(=O)[C@@H]1CSCC(=O)N[C@@H](CC)C(=O)N(C)[C@@H](C)C(=O)N[C@H](CC(C)C)C(=O)N2CCC[C@@H]2C(=O)N(CC)CC(=O)N[C@H](CC(C)C)C(=O)N(C)[C@H](C)C(=O)N[C@@H](CC(C)C)C(=O)N1C [JF206_ADL_LDDD_Ethyl] ({CH2CO}-[Abu][NMeA][dL][dP][NEtG][dL][dNMeA]L[NMeC]-OEt; thioether N-9)
